The values below come from PubChem BioAssay (NCI).

Several values for one entry are separate records, joined by “and”; a condition that tells them apart may be missing. Equal entries are not always repeated.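 Step 1: Grow cells in 96-well plates. Step 2: Expose to compound for 48 hours at 5 concentrations. Step 3: Interpolate endpoints linearly; if unreached, use highest concentration. Here, GI50 denotes the concentration required for 50% inhibition of growth. TGI is the concentration that stops growth completely.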

Some test systems named below: DU-145 prostate; HOP-92 NSCLC; EKVX NSCLC; T-47D breast; OVCAR-3 ovarian; SNB-75 CNS; MDA-MB-231 breast; A549 NSCLC; UO-31 renal; SN12C renal.
Common to all, as to assay: NCI tumour cell line growth inhibition, 48 h

For `COc1ccc(/C=C/C(=O)c2ccc(Nc3ccnc4cc(Cl)ccc34)cc2)cc1`, the GI50 in the experiment with DU-145 prostate, in the experiment on HOP-92 NSCLC, in the experiment with EKVX NSCLC, in the experiment with T-47D breast, with OVCAR-3 ovarian and in the experiment on SNB-75 CNS was over 100 µM throughout. For the same molecule, the GI50 is 31.1 µM in the experiment on MDA-MB-231 breast, over 100 µM in the experiment on A549 NSCLC, over 100 µM with UO-31 renal and over 100 µM in the experiment on SN12C renal. Further, the TGI with DU-145 prostate, in the experiment with HOP-92 NSCLC, in the experiment with EKVX NSCLC, with T-47D breast, with OVCAR-3 ovarian and in the experiment on SNB-75 CNS was over 100 µM each time. Moreover, the TGI in the experiment with MDA-MB-231 breast, in the experiment on A549 NSCLC, in the experiment on UO-31 renal and with SN12C renal was over 100 µM throughout.

On to `O=c1cccc(C#CC#C/C=C/CO)o1`, for which the GI50 in the experiment on DU-145 prostate was 3.4 µM; in the experiment with HOP-92 NSCLC, 2.74 µM; with EKVX NSCLC, 2.77 µM; in the experiment on T-47D breast, 2.36 µM; in the experiment with OVCAR-3 ovarian it was 2.33 µM; in the experiment with SNB-75 CNS, 17 µM. Further, the GI50 is 1.87 µM with MDA-MB-231 breast, 3.65 µM in the experiment on A549 NSCLC, 2.6 µM in the experiment with UO-31 renal and 1.74 µM in the experiment with SN12C renal. The TGI in the experiment with DU-145 prostate was 12.4 µM; with HOP-92 NSCLC, 5.85 µM; in the experiment with EKVX NSCLC, 6.47 µM; in the experiment with T-47D breast, 4.46 µM; with OVCAR-3 ovarian, 6.12 µM; in the experiment with SNB-75 CNS it was 92.9 µM. The TGI in the experiment with MDA-MB-231 breast worked out at 4.03 µM; in the experiment on A549 NSCLC, 13.1 µM; in the experiment with SN12C renal, 4.19 µM.

With `CCCN1CCN(c2ccc3nc(-c4ccc5nc(-c6ccc(OCC)c(OCC)c6)[nH]c5c4)[nH]c3c2)CC1`, the GI50 is 0.436 µM in the experiment on DU-145 prostate; 1 µM in the experiment with HOP-92 NSCLC; 1.4 µM with EKVX NSCLC; 0.428 µM with T-47D breast; 0.258 µM in the experiment with OVCAR-3 ovarian; 0.425 µM in the experiment on SNB-75 CNS. Further, the GI50 was 1.21 µM in the experiment on MDA-MB-231 breast, 0.808 µM in the experiment on A549 NSCLC, 1.58 µM in the experiment on UO-31 renal and 0.526 µM in the experiment with SN12C renal. Further, the TGI in the experiment on DU-145 prostate was found to be 1.75 µM; in the experiment with HOP-92 NSCLC, 5.5 µM; in the experiment with EKVX NSCLC it was 7.72 µM; in the experiment on T-47D breast, 5.66 µM; with OVCAR-3 ovarian, 0.622 µM; with SNB-75 CNS, 1.9 µM. The TGI came to 2.81 µM in the experiment with MDA-MB-231 breast, 2.35 µM in the experiment with A549 NSCLC, 3.32 µM in the experiment with UO-31 renal and 2.14 µM with SN12C renal.

On to `C=C(CN1CCN(c2cccc(F)c2)CC1)c1ccc(C(=O)Nc2ccccc2N)cc1`, for which the GI50 in the experiment on DU-145 prostate is 1.8 µM; with HOP-92 NSCLC it was 0.6 µM; in the experiment on EKVX NSCLC, 6.68 µM; with T-47D breast, 4.38 µM; with OVCAR-3 ovarian, 1.94 µM; in the experiment on SNB-75 CNS, 0.492 µM. For the same molecule, the GI50 is 1.01 µM in the experiment with MDA-MB-231 breast, 3.24 µM with A549 NSCLC, 1.31 µM in the experiment on UO-31 renal and 2.74 µM with SN12C renal. The TGI in the experiment with DU-145 prostate was 7.16 µM; in the experiment on HOP-92 NSCLC, 6.97 µM; in the experiment on EKVX NSCLC, over 100 µM; with T-47D breast, over 100 µM; with OVCAR-3 ovarian, 17.7 µM; in the experiment on SNB-75 CNS, 6.24 µM. Also, the TGI in the experiment with MDA-MB-231 breast is 4.27 µM; in the experiment with A549 NSCLC, 16.3 µM; in the experiment on UO-31 renal it was 10.2 µM; with SN12C renal, over 100 µM.

Turning to `Cc1ccc(NC(=O)c2nc(S(C)=O)oc2-c2ccc(F)cc2)cc1Nc1nccc(-c2cccnc2)n1` (centres undefined), the GI50 is 1.91 µM with DU-145 prostate; 2.13 µM with HOP-92 NSCLC; 2.62 µM with EKVX NSCLC; 1.73 µM in the experiment with T-47D breast; 1.87 µM in the experiment with OVCAR-3 ovarian; 2.31 µM in the experiment on SNB-75 CNS. The GI50 in the experiment with MDA-MB-231 breast was 1.94 µM; in the experiment on A549 NSCLC, 5.15 µM; in the experiment on UO-31 renal, 1.73 µM; with SN12C renal, 1.81 µM. Besides, the TGI worked out at 3.75 µM in the experiment with DU-145 prostate; 4.69 µM in the experiment with HOP-92 NSCLC; 6.65 µM in the experiment on EKVX NSCLC; 3.68 µM in the experiment on T-47D breast; 3.39 µM with OVCAR-3 ovarian; 5.43 µM in the experiment on SNB-75 CNS. Also, the TGI with MDA-MB-231 breast amounted to 4.38 µM; in the experiment with A549 NSCLC it was 17.3 µM; in the experiment with UO-31 renal it was 3.14 µM; in the experiment with SN12C renal, 3.73 µM.

On to `CC(=O)c1ccc(NCN2C(=O)c3ccccc3C2=O)cc1`, for which the TGI with DU-145 prostate, in the experiment on HOP-92 NSCLC, in the experiment on EKVX NSCLC, with T-47D breast, in the experiment on OVCAR-3 ovarian and in the experiment with SNB-75 CNS was over 100 µM throughout. The TGI in the experiment on MDA-MB-231 breast, in the experiment on A549 NSCLC, with UO-31 renal and in the experiment with SN12C renal was over 100 µM in each case.

As to `CC(=O)OCC1OC(n2c(-c3ccccc3)c(C)c(C)c(C#N)c2=S)C(OC(C)=O)C(OC(C)=O)C1OC(C)=O` (centres undefined), the GI50 is 36.9 µM and > 100 µM in the experiment on DU-145 prostate; 0.0211 µM in the experiment on HOP-92 NSCLC; 25.7 µM and > 100 µM in the experiment on A549 NSCLC; > 50 µM and 12 µM in the experiment with UO-31 renal; 48.3 µM and > 100 µM in the experiment on SN12C renal. The TGI was over 100 µM in the experiment on DU-145 prostate; 24 µM in the experiment with HOP-92 NSCLC; 46.9 µM and 77 µM in the experiment with EKVX NSCLC; over 100 µM with T-47D breast; over 100 µM in the experiment on OVCAR-3 ovarian; over 100 µM with SNB-75 CNS. Moreover, the TGI with MDA-MB-231 breast is > 50 µM and 30.9 µM; in the experiment with A549 NSCLC, over 100 µM; with UO-31 renal, > 50 µM and 37.9 µM; in the experiment on SN12C renal, over 100 µM.

Take `Cc1ccccc1/C=C1\CN(C(=O)OC(C)(C)C)C/C(=C\c2ccccc2C)C1=O`: the GI50 in the experiment on DU-145 prostate was 2.37 µM; in the experiment with HOP-92 NSCLC, 1.9 µM; in the experiment with EKVX NSCLC, 2.34 µM; in the experiment on T-47D breast it was 3.78 µM; in the experiment on OVCAR-3 ovarian it was 1.85 µM; with SNB-75 CNS, 2.71 µM. For the same molecule, the GI50 with MDA-MB-231 breast was 3.49 µM; with A549 NSCLC it was 2.82 µM; with UO-31 renal it was 1.63 µM; in the experiment on SN12C renal, 2.7 µM. Further, the TGI in the experiment with DU-145 prostate is 5.52 µM; in the experiment on HOP-92 NSCLC, 5.75 µM; with EKVX NSCLC it was 6.88 µM; in the experiment with T-47D breast, over 100 µM; with OVCAR-3 ovarian it was 3.65 µM; in the experiment on SNB-75 CNS it was 9.34 µM. Moreover, the TGI with MDA-MB-231 breast amounted to 12.6 µM; in the experiment on A549 NSCLC, 9.17 µM; in the experiment with UO-31 renal, 3.09 µM; with SN12C renal, 6.43 µM.
